Literature values as cited in patent US20250135196A1, “COMPOSITIONS, SYSTEMS, AND METHODS FOR TREATING CANCER USING TUMOR TREATING FIELDS WITH INHIBITORS OF MIF, MICA, AND/OR MICB” (Brown University, priority 2023, published 2025).
One block for each compound: values may come before it.

Key:
MIF = target: T1, MIF (Homo sapiens, UniProt P14174); conditions: tautomerase assay; for fold more potent than ISO-1 (TA): relative to ISO-1; for IC50 / Ki: literature values, reference number in brackets in cell; for Ki: read-out: Ki (TA)
T1 sequence (P14174 2-115 limits assumed): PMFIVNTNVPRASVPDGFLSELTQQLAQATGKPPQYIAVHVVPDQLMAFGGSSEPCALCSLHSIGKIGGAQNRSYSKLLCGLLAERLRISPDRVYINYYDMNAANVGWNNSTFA

MIF-CD74 = target: T2, MIF-CD74 (Homo sapiens, UniProt P14174); conditions: binding assay MIF-CD74; for Kd: read-out: Kd (BA)
T2 sequence (P14174 2-115 limits assumed): T1 sequence (P14174 2-115 limits assumed)

Compound: CN(C(=O)CC1CC(c2ccc(Cl)cc2)=NO1)C1CCCCC1 (stereo not shown) [CPSI-2705]
fold more potent than ISO-1 (TA) (MIF): 2-10-fold more potent than ISO-1 (35) (TA)

Compound: O=C(CC1CC(c2ccc(F)cc2F)=NO1)N1CCOCC1 (stereo not shown) [CPS1-1306]
fold more potent than ISO-1 (TA) (MIF): 100-fold more potent than ISO-1 [35] (TA)

Compound: COc1ccc(N2Cc3ccc(O)cc3OC2=O)cc1 [NVS-2]
IC50 (MIF): 0.02 µM | Ki (MIF): 0.027 µM | Kd (MIF-CD74): 0.055 µM

Compound: Cc1ccccc1-c1cc2ccccc2c(=O)o1 [SCD-19]
inhibition (TA) (MIF; at concentration of 100 μM): 100% inhibition at concentration of 100 μM [37] (TA)

Further lines, results first:

IC50 (MIF): 1.5 µM
Compound: COC(=O)CC1CC(c2ccc(O)c(F)c2)=NO1 (stereo not shown) [ISO-66]

Max. inhibition (BA) (MIF-CD74; maximal inhibition): 40%
Compound: COC(=O)CC1CC(c2ccc(O)cc2)=NO1 (racemic) [ISO-1]

IC50 (MIF-CD74): 0.9 µM
Compound: COc1cccc(Cn2cc(-c3ccc(O)cc3)nn2)c1OC [Jorgensen-3g]

IC50 (MIF): 0.2 to 0.5 µM
Compound: Ic1cc(-c2ccccc2)ncn1 [4-IPP, 4-iodo-6-phenylpyrimidine]

Ki (MIF): 0.057 µM | Kd (MIF-CD74): 0.071 µM
Compound: O=C(O)c1cccc(Oc2cc(-c3cn(-c4ccc(O)c(F)c4)nn3)nc3ccccc23)c1 [Dziedzic-3bb]

IC50 (MIF-CD74): 1 µM
Compound: COC(=O)c1cccc(Cn2cc(-c3ccc(O)cc3)nn2)c1 [Jorgensen-3h]
